In data set [1] the test system is HBV viral load, AD38 cells. The data set can be described thus: Activity of test compounds on viral production from AD38 cells (viral load by quantitative PCR of the core sequence in supernatant). It counts as cell-based, Hepatitis B virus. The following applies: 10 μM compound, 6 days at 37° C., vs DMSO control wells; for activity at 10 µM: Hepatitis B virus, 144 h, read-out: AD38 Viral Load (CpAM/DMSO %) at 10 μM. Summed up:
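Cells seeded at 50,000/well on collagen-coated plates and exposed for 6 days at 37 °C to compound at 1, 3 or 10 μM final (1.0% DMSO). Supernatant viral DNA measured by TaqMan qPCR of the core sequence against known standards, compared with DMSO control wells.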

Data set [2] has as its system AD38 cells. The data set can be described thus: AD38 viability normalized to DMSO control. It counts as cell-based. To be noted: 10 μM compound, vs DMSO control. The protocol: AD38 cells were then re-suspended with 10 mL of treatment medium and counted. Wells of a collagen coated 96-well NUNC microtiter plate were seeded at 50,000/well in 180 μL of treatment medium, and 20 μL of either 10% DMSO (Control) or a 10× solution of test compound in 10% DMSO in treatment media was added for a final compound concentration 1, 3, or 10 μM (1.0% final [DMSO]) and plates were incubated for 6 days at 37° C.

Like-named read-outs stand apart in the source and are kept apart here.

For the compound `Cc1cc(Nc2ccc(F)cc2)nc(N2CCN(S(=O)(=O)c3ccc(OCCN4CCOCC4)cc3)CC2)n1` [Compound 1383, N-(4-fluorophenyl)-6-methyl-2-(4-((4-(2-morpholinoethoxy)phenyl)sulfonyl)piperazin-1-yl) pyrimidin-4-amine], in data set [1] (Table 9), the activity at 10 µM came out at 14%. In addition, the “AD38 Viability Normalized Result (CPAM/DMSO %) at 10 μM” value in data set [2] (Table 9) is given as 94%.
As for `Cc1cc(Nc2ccc(F)cc2)nc(N2CCN(S(=O)(=O)c3ccc(CC(=O)O)cc3)CC2)n1` [Compound 1392, 2-(4-((4-(4-((4-fluorophenyl)amino)-6-methylpyrimidin-2-yl)piperazin-1-yl)sulfonyl)phenyl) acetic acid], the activity at 10 µM in data set [1] (Table 9) was found to be 69%. Also, the “AD38 Viability Normalized Result (CPAM/DMSO %) at 10 μM” value in data set [2] (Table 9) is 99%.
Regarding `COc1ccc(S(=O)(=O)N2CCN(c3nc(C)cc(Nc4ccc(C#N)cc4)n3)C(C)C2)cc1` (stereo not shown) [Compound 1363], the activity at 10 µM in data set [1] (Table 9) stood at 1%. Further, the “AD38 Viability Normalized Result (CPAM/DMSO %) at 10 μM” value in data set [2] (Table 9) is on record as 93%.
Take `Cc1ccc(S(=O)(=O)N2CCN(c3nc(Oc4ccc(F)cc4)cc(N(C)C)n3)CC2)cc1` [Compound 1290]: the activity at 10 µM in data set [1] (Table 6) came to 62%. The “AD38 Viability Normalized Result (CPAM/DMSO %) at 10 μM” value in data set [2] (Table 6) is 105%.
Regarding `COc1ccc(S(=O)(=O)N2CCN(c3nc(Nc4ccc(C)cc4)cc(N(C)C)n3)CC2)cc1` [Compound 1143], the activity at 10 µM in data set [1] (Table 6) was found to be 8%. Further, in data set [2] (Table 6), the “AD38 Viability Normalized Result (CPAM/DMSO %) at 10 μM” value amounted to 107%.
As for `CCCCOc1ccc(S(=O)(=O)N2CCN(c3nc(Nc4ccc(C#N)cc4)cc(-c4nccs4)n3)CC2)cc1` [Compound 1354], the activity at 10 µM in data set [1] (Table 9) was determined as 24%. For the same compound, the “AD38 Viability Normalized Result (CPAM/DMSO %) at 10 μM” value in data set [2] (Table 9) is 97%.
In the case of `Cc1cc(Nc2ccc(C#N)cc2)nc(N2CCN(S(=O)(=O)c3ccc(OCCN(C)C)cc3)CC2)n1` [Compound 1377, 4-((2-(4-((4-(2-(dimethylamino)ethoxy)phenyl)sulfonyl)piperazin-1-yl)-6-methylpyrimidin-4-yl)amino) benzonitrile], the activity at 10 µM in data set [1] (Table 9) turned out to be 1%. Also, the “AD38 Viability Normalized Result (CPAM/DMSO %) at 10 μM” value in data set [2] (Table 9) came to 15%.
Consider `COc1ccc(S(=O)(=O)N2CCN(c3nc(C)cc(Nc4nccs4)n3)CC2)cc1` [Compound 1233], for which the activity at 10 µM in data set [1] (Table 6) was found to be 87%. Further, in data set [2] (Table 6), the “AD38 Viability Normalized Result (CPAM/DMSO %) at 10 μM” value is given as 95%.
For the compound `COc1ccc(S(=O)(=O)N2CCN(c3nc(C)cc(Nc4ccc(F)cc4)n3)CC2(C)C)cc1` [Compound 1370], the activity at 10 µM in data set [1] (Table 9) is 12%. Moreover, in data set [2] (Table 9), the “AD38 Viability Normalized Result (CPAM/DMSO %) at 10 μM” value came out at 114%.
Regarding `O=S(=O)(c1ccc(C(F)(F)F)cc1)N1CCN(c2nc(Oc3ccc(F)cc3)cc(-n3cnnc3)n2)CC1` [Compound 1308], the activity at 10 µM in data set [1] (Table 6) was 63%. In addition, the “AD38 Viability Normalized Result (CPAM/DMSO %) at 10 μM” value in data set [2] (Table 6) came out at 88%.
With `Cc1ccc(Nc2cc(C)nc(N3CCN(S(=O)(=O)c4ccccc4C)CC3)n2)cc1` [Compound 1153], the activity at 10 µM in data set [1] (Table 6) amounted to 21%. In addition, the “AD38 Viability Normalized Result (CPAM/DMSO %) at 10 μM” value in data set [2] (Table 6) is reported as 109%.
As for `CNc1cc(Nc2ccc(C)cc2)nc(N2CCN(S(=O)(=O)c3ccc(OC)cc3)CC2)n1` [Compound 1243], the activity at 10 µM in data set [1] (Table 6) was 32%. Further, the “AD38 Viability Normalized Result (CPAM/DMSO %) at 10 μM” value in data set [2] (Table 6) was 109%.
The corresponding values for `O=S(=O)(c1ccccc1)N1CCN(c2nc(Oc3ccc(F)cc3)cc(-n3cnnc3)n2)CC1` [Compound 1311] are 66% and 86%.
The corresponding values for `CN(C)c1cc(Nc2ccc(F)cc2)nc(N2CCN(S(=O)(=O)c3ccc(F)cc3)CC2)n1` [Compound 1302] are 52% and 112%.
As to `N#Cc1ccc(Nc2cc(-c3cncs3)nc(N3CCN(S(=O)(=O)c4ccc(F)cc4)CC3)n2)cc1` [Compound 1380], the activity at 10 µM in data set [1] (Table 9) amounted to 10%. The “AD38 Viability Normalized Result (CPAM/DMSO %) at 10 μM” value in data set [2] (Table 9) is 108%.
As for `COc1ccc(S(=O)(=O)N2CCN(c3nc(Nc4ccc(C)cc4)cc(-c4nccs4)n3)CC2)cc1` [Compound 1242], the activity at 10 µM in data set [1] (Table 6) turned out to be 30%. In data set [2] (Table 6), the “AD38 Viability Normalized Result (CPAM/DMSO %) at 10 μM” value is given as 103%.
For `COc1ccc(S(=O)(=O)N2CCN(c3nc(Nc4ccc(C)cc4)cc(-n4cnnc4)n3)CC2)cc1` [Compound 1282, 2-(4-((4-methoxyphenyl)sulfonyl)piperazin-1-yl)-N-(p-tolyl)-6-(4H-1,2,4-triazol-4-yl) pyrimidin-4-amine], the activity at 10 µM in data set [1] (Table 6) is 22%. Further, the “AD38 Viability Normalized Result (CPAM/DMSO %) at 10 μM” value in data set [2] (Table 6) is given as 99%.
With `Cc1ccc(Nc2cc(C)nc(N3CCN(S(=O)(=O)c4cccnc4)CC3)n2)cc1` [Compound 1133], the activity at 10 µM in data set [1] (Table 6) came to 35%. In addition, in data set [2] (Table 6), the “AD38 Viability Normalized Result (CPAM/DMSO %) at 10 μM” value came to 108%.
Consider `COc1ccc(S(=O)(=O)N2CCN(c3nc(C)cc(Oc4ccc(C)cc4)n3)CC2)cc1` [Compound 1152], for which the activity at 10 µM in data set [1] (Table 6) is 20%. For the same compound, the “AD38 Viability Normalized Result (CPAM/DMSO %) at 10 μM” value in data set [2] (Table 6) is listed as 107%.
On to `Cc1cc(Nc2ccc(F)cc2)nc(N2CCN(S(=O)(=O)c3ccc(O[C@@H](C)C(=O)O)cc3)CC2)n1` [Compound 1396, (S)-2-(4-((4-(4-((4-fluorophenyl)amino)-6-methylpyrimidin-2-yl)piperazin-1-yl)sulfonyl)phenoxy) propanoic acid], for which the activity at 10 µM in data set [1] (Table 9) turned out to be 70%. Also, in data set [2] (Table 9), the “AD38 Viability Normalized Result (CPAM/DMSO %) at 10 μM” value was 100%.
Take `CCOc1ccc(S(=O)(=O)N2CCN(c3nc(Nc4ccc(F)cc4)cc(C(F)(F)F)n3)CC2)cc1` [Compound 1341]: the activity at 10 µM in data set [1] (Table 9) stood at 1%. In data set [2] (Table 9), the “AD38 Viability Normalized Result (CPAM/DMSO %) at 10 μM” value was 95%.
As for `COC(=O)CCCOc1ccc(S(=O)(=O)N2CCN(c3nc(Nc4ccc(F)cc4)cc(C(F)(F)F)n3)CC2)cc1` [Compound 1397, methyl 4-(4-((4-(4-((4-fluorophenyl)amino)-6-(trifluoromethyl)pyrimidin-2-yl)piperazin-1-yl)sulfonyl)phenoxy) butanoate], the “AD38 Viral Load (CpAM/DMSO %) at 10 μM” value in data set [1] (Table 9) was found to be 5%. Moreover, the “AD38 Viability Normalized Result (CPAM/DMSO %) at 10 μM” value in data set [2] (Table 9) amounted to 33%.
With `CN(C)c1cc(Nc2ccc(F)cc2)nc(N2CCN(S(=O)(=O)c3cccc(C(F)(F)F)c3)CC2)n1` [Compound 1305], the activity at 10 µM in data set [1] (Table 6) amounted to 4%. Besides, the “AD38 Viability Normalized Result (CPAM/DMSO %) at 10 μM” value in data set [2] (Table 6) was determined as 6%.
As for `O=S(=O)(c1ccc(OC(F)(F)F)cc1)N1CCN(c2nc(Nc3ccc(F)cc3)cc(-c3nccs3)n2)CC1` [Compound 1367], the “AD38 Viral Load (CpAM/DMSO %) at 10 μM” value in data set [1] (Table 9) stood at 44%. Also, the “AD38 Viability Normalized Result (CPAM/DMSO %) at 10 μM” value in data set [2] (Table 9) is 105%.
Take `COc1ccc(S(=O)(=O)N2CCN(c3nc(Nc4ccc(C)cc4)cc(N4CCSCC4)n3)CC2)cc1` [Compound 1241, 2-(4-((4-methoxyphenyl)sulfonyl)piperazin-1-yl)-6-thiomorpholino-N-(p-tolyl) pyrimidin-4-amine]: the activity at 10 µM in data set [1] (Table 6) was 65%. Further, the “AD38 Viability Normalized Result (CPAM/DMSO %) at 10 μM” value in data set [2] (Table 6) is given as 98%.
Regarding `COc1ccc(S(=O)(=O)N2CCN(c3nc(Nc4ccc(C)cc4)cc(OC)n3)CC2)cc1` [Compound 1157], the activity at 10 µM in data set [1] (Table 6) was found to be 35%. Further, the “AD38 Viability Normalized Result (CPAM/DMSO %) at 10 μM” value in data set [2] (Table 6) amounted to 96%.
As to `Cc1ccc(Nc2cc(C)nc(N3CCN(S(=O)(=O)c4ccc(N)nc4)CC3)n2)cc1` [Compound 1245], the activity at 10 µM in data set [1] (Table 6) amounted to 70%. Besides, the “AD38 Viability Normalized Result (CPAM/DMSO %) at 10 μM” value in data set [2] (Table 6) is recorded as 99%.
As to `O=S(=O)(c1ccc(F)cc1)N1CCN(c2nc(Nc3ccc(F)cc3)cc(C(F)(F)F)n2)CC1` [Compound 1345], in data set [1] (Table 9), the activity at 10 µM was 14%. Moreover, the “AD38 Viability Normalized Result (CPAM/DMSO %) at 10 μM” value in data set [2] (Table 9) amounted to 77%.
For `CCCCCOc1ccc(S(=O)(=O)N2CCN(c3nc(Nc4ccc(F)cc4)cc(C(F)(F)F)n3)CC2)cc1` [Compound 1401] the same measures were 42% and 97%.
Turning to `CCCCOc1ccc(S(=O)(=O)N2CCN(c3nc(Nc4ccc(C#N)cc4)cc(-c4cncs4)n3)CC2)cc1` [Compound 1369], the activity at 10 µM in data set [1] (Table 9) is 56%. The “AD38 Viability Normalized Result (CPAM/DMSO %) at 10 μM” value in data set [2] (Table 9) is recorded as 96%.
On to `Cc1ccc(S(=O)(=O)N2CCN(c3nc(Nc4ccc(C#N)cc4)cc(-c4cncs4)n3)CC2)cc1` [Compound 1379], for which the activity at 10 µM in data set [1] (Table 9) was 6%. Also, the “AD38 Viability Normalized Result (CPAM/DMSO %) at 10 μM” value in data set [2] (Table 9) was determined as 110%.
Turning to `Cc1cc(Nc2ccc(F)cc2)nc(N2CCN(S(=O)(=O)c3ccc(C(=O)O)cc3)CC2)n1` [Compound 1381, 4-((4-(4-((4-fluorophenyl)amino)-6-methylpyrimidin-2-yl)piperazin-1-yl)sulfonyl) benzoic acid], the activity at 10 µM in data set [1] (Table 9) is 46%. For the same compound, in data set [2] (Table 9), the “AD38 Viability Normalized Result (CPAM/DMSO %) at 10 μM” value turned out to be 107%.
In the case of `O=C(O)CCCOc1ccc(S(=O)(=O)N2CCN(c3nc(Nc4ccc(F)cc4)cc(C(F)(F)F)n3)CC2)cc1` [Compound 1398, 4-(4-((4-(4-((4-fluorophenyl)amino)-6-(trifluoromethyl)pyrimidin-2-yl)piperazin-1-yl)sulfonyl)phenoxy) butanoic acid], the activity at 10 µM in data set [1] (Table 9) was 4%. Also, the “AD38 Viability Normalized Result (CPAM/DMSO %) at 10 μM” value in data set [2] (Table 9) amounted to 0%.
Regarding `CCOc1ccc(S(=O)(=O)N2CCN(c3nc(Nc4ccc(F)cc4)cc(-c4nccs4)n3)CC2)cc1` [Compound 1358], the activity at 10 µM in data set [1] (Table 9) amounted to 77%. For the same compound, in data set [2] (Table 9), the “AD38 Viability Normalized Result (CPAM/DMSO %) at 10 μM” value was found to be 99%.
Consider `O=S(=O)(c1ccccc1)N1CCN(c2nc(Nc3ccc(F)cc3)cc(-n3cnnc3)n2)CC1` [Compound 1314], for which the activity at 10 µM in data set [1] (Table 6) amounted to 36%. Besides, the “AD38 Viability Normalized Result (CPAM/DMSO %) at 10 μM” value in data set [2] (Table 6) amounted to 94%.
